Laboratory results as given in patent publication US20230226152A1, “INTERLEUKIN-2 POLYPEPTIDE CONJUGATES AND METHODS OF USE THEREOF” (Ambrx, Inc., priority 2020, published 2023).

Test system: CTLL-2 cells
Assay: CTLL-2 cell expansion / proliferation (binding) assay
Type: cell-based
Procedure: T cell expansion test of IL-2 variants in CTLL-2 cells. CTLL-2 cell expansion assay was performed using transiently expressed F42 variant supernatant from transfected engineered CHO cells. […] Cell proliferation was performed using Cell Titer Glo (Promega, WI). Luminescent signal was read on TECAN genios pro. […] A general procedure for studying the IL-2 variants of the present invention is shown in the following:
Utilizing a CTLL-2 cell expansion assay as disclosed in the Examples, 20 different IL-2 variants including 16 originally selected sites (wild type included) and 4 additional sites (K32, K48, K49, K76) known in the art were screened (Charych, D., et al., PLoS One, 12(7): p. e0179431, 2017). […] Identified variants were further analyzed for their binding capabilities after PEGylation.

F42: IL-2 with unnatural amino acid (pAF) at F42, SEQ ID NO: 9
EC50 (transiently expressed variant supernatant from engineered CHO cells, Cell Titer Glo): around 0.24 ng/mL
function retained compared to wild type control (wild type IL-2 = 100% proliferation): 95%
